Data reported in the supplement of paper PMC10307832.

Tests used:
Experiment in all cases: relative viability (nuclei count vs DMSO), 5 days (fraction); higher = more cells survive
Midostaurin + Navitoclax = compound: CO[C@@H]1[C@H](N(C)C(=O)c2ccccc2)C[C@H]2O[C@]1(C)n1c3ccccc3c3c4c(c5c6ccccc6n2c5c31)C(=O)NC4 [Midostaurin] + CC1(C)CCC(c2ccc(Cl)cc2)=C(CN2CCN(c3ccc(C(=O)NS(=O)(=O)c4ccc(N[C@H](CCN5CCOCC5)CSc5ccccc5)c(S(=O)(=O)C(F)(F)F)c4)cc3)CC2)C1 [Navitoclax] (partner 0.5 µM)
In short: (§1)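 Medians of duplicate plates are given as relative viability. That measure is the nuclei count in treated wells divided by the count in vehicle wells. Counts were taken on 4× images of lung cancer cell lines in 1536-well plates, 5 days after pin-tool dosing the day after seeding with one drug alone or a fixed anchor-drug dose plus five library-drug doses (not always all listed) in √10 steps.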

[1] = compound: COc1cc(-c2nn([C@H]3CC[C@H](N4CCN(C(C)=O)CC4)CC3)c3ncnc(N)c23)ccc1NC(=O)c1cc2ccccc2n1C
In short: (§2)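 Viability is treated-well nuclei as a fraction of vehicle-well nuclei, reported as the median across plates. Before counting, lung cancer cell lines were kept overnight at 37 °C in 1536-well plates, pinned with five √10-spaced library-drug doses on vehicle-anchored plates, and left 5 days without medium change, then fixed, permeabilised and Hoechst-stained in one step, imaged at 4× and counted by MetaXpress. A plate passed only if control CV was below 25% and at least one doubling occurred.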

Midostaurin = compound: CO[C@@H]1[C@H](N(C)C(=O)c2ccccc2)C[C@H]2O[C@]1(C)n1c3ccccc3c3c4c(c5c6ccccc6n2c5c31)C(=O)NC4 [Midostaurin]
In short: as §2

Midostaurin + Phenformin = compound: CO[C@@H]1[C@H](N(C)C(=O)c2ccccc2)C[C@H]2O[C@]1(C)n1c3ccccc3c3c4c(c5c6ccccc6n2c5c31)C(=O)NC4 [Midostaurin] + N=C(N)NC(=N)NCCc1ccccc1 [Phenformin] (partner 250 µM)
In short: as §1

[2] = compound: COc1cc(-c2nn([C@H]3CC[C@H](N4CCN(C(C)=O)CC4)CC3)c3ncnc(N)c23)ccc1NC(=O)c1cc2ccccc2n1C + N=C(N)NC(=N)NCCc1ccccc1 [Phenformin] (partner 250 µM)
In short: as §1

| Cell Line | relative viability (Midostaurin + Navitoclax; first compound 0.01 µM) | relative viability (Midostaurin + Navitoclax; first compound 0.03162 µM) | relative viability (Midostaurin + Navitoclax; first compound 0.1 µM) | relative viability (Midostaurin + Navitoclax; first compound 0.3162 µM) | relative viability ([1]; 0.0128 µM) | relative viability ([1]; 0.04048 µM) | relative viability ([1]; 0.128 µM) | relative viability ([1]; 1.28 µM) | relative viability (Midostaurin; 0.01 µM) | relative viability (Midostaurin; 0.03162 µM) | relative viability (Midostaurin; 0.1 µM) | relative viability (Midostaurin; 0.3162 µM) | relative viability (Midostaurin + Phenformin; first compound 0.01 µM) | relative viability (Midostaurin + Phenformin; first compound 0.03162 µM) | relative viability (Midostaurin + Phenformin; first compound 0.1 µM) | relative viability (Midostaurin + Phenformin; first compound 0.3162 µM) | relative viability ([2]; first compound 0.0128 µM) | relative viability ([2]; first compound 0.04048 µM) | relative viability ([2]; first compound 0.128 µM) | relative viability ([2]; first compound 1.28 µM) |
| --- | --- | --- | --- | --- | --- | --- | --- | --- | --- | --- | --- | --- | --- | --- | --- | --- | --- | --- | --- | --- |
| Calu-6 | 0.69 | 0.757 | 0.709 | 0.697 | 1.04 | 1.04 | 0.899 | 0.764 | 0.946 | 0.984 | 0.985 | 1.01 | – | – | – | – | – | – | – | – |
| LC-2-ad | 0.477 | 0.405 | 0.439 | 0.224 | 1.09 | 0.976 | 0.959 | 0.958 | 0.97 | 0.936 | 0.957 | 0.892 | 0.542 | 0.562 | 0.632 | 0.586 | 0.642 | 0.552 | 0.593 | 0.503 |
| CAL-12T | 1.44 | 0.981 | 1.05 | 1.2 | 1.03 | 1.03 | 1.06 | 0.991 | 1.05 | 0.882 | 0.921 | 0.839 | 0.666 | 0.527 | 0.438 | 0.275 | 0.588 | 0.465 | 0.572 | 0.416 |
| RERF-LC-KJ | 1.02 | 1.05 | 1.19 | 0.998 | 1 | 0.991 | 0.94 | 0.896 | 1.02 | 1.01 | 1.04 | 1.04 | 0.454 | 0.376 | 0.391 | 0.379 | 0.377 | 0.448 | 0.413 | 0.379 |
| NCI-H1650 | 1.29 | 1.03 | 1.08 | 0.846 | 0.922 | 1.1 | 0.941 | 0.812 | 0.915 | 0.957 | 0.921 | 0.937 | 0.408 | 0.498 | 0.413 | 0.302 | 0.41 | 0.57 | 0.435 | 0.479 |
| ABC-1 | – | – | – | – | 0.879 | 0.885 | 0.756 | 0.805 | 0.867 | 0.962 | 0.948 | 0.96 | 0.23 | 0.242 | 0.233 | 0.228 | 0.231 | 0.245 | 0.225 | 0.243 |
| NCI-H1299 | 1.07 | 0.989 | 1.01 | 1.01 | 1.06 | 1.11 | 1 | 1 | 1.01 | 0.974 | 0.975 | 0.965 | – | – | – | – | – | – | – | – |
| EBC-1 | 0.49 | 0.453 | 0.429 | 0.312 | 1.06 | 1.07 | 1.01 | 1.02 | 1.01 | 0.9 | 0.959 | 0.684 | – | – | – | – | – | – | – | – |
| NCI-H1648 | – | – | – | – | 0.964 | 0.766 | 0.858 | 0.721 | 0.937 | 0.803 | 0.724 | 0.927 | – | – | – | – | – | – | – | – |
| NCI-H650 | – | – | – | – | 1.13 | 1.25 | 0.911 | 1.01 | 0.779 | 0.844 | 0.922 | 0.858 | 0.403 | 0.413 | 0.437 | 0.322 | 0.519 | 0.593 | 0.459 | 0.462 |
| NCI-H358 | – | – | – | – | 0.889 | 0.703 | 0.702 | 0.335 | 0.949 | 0.93 | 1.08 | 0.85 | 0.404 | 0.331 | 0.371 | 0.353 | 0.329 | 0.283 | 0.254 | 0.187 |
| NCI-H1563 | – | – | – | – | 1.04 | 1.12 | 0.971 | 0.709 | 1.09 | 1.03 | 0.957 | 0.769 | 0.693 | 0.672 | 0.697 | 0.682 | 0.608 | 0.635 | 0.662 | 0.617 |
| NCI-H522 | – | – | – | – | 0.936 | 0.875 | 0.954 | 0.885 | 1.07 | 1.06 | 0.947 | 1.04 | 0.596 | 0.706 | 0.655 | 0.753 | 0.598 | 0.625 | 0.641 | 0.541 |
| IA-LM | 0.81 | – | 0.701 | 0.631 | 1.04 | 0.999 | 1.05 | 0.991 | 0.93 | 0.677 | 0.918 | 0.941 | – | – | – | – | – | – | – | – |
| NCI-H1703 | 1.21 | 0.974 | 0.75 | 0.312 | 0.968 | 0.581 | 0.803 | 0.324 | 0.958 | 0.869 | 0.64 | 0.266 | – | – | – | – | – | – | – | – |
| LCLC-103H | – | – | – | – | 1.06 | 1.01 | 1 | 1.07 | 1.05 | 0.922 | 0.979 | 1 | 0.347 | 0.309 | 0.359 | 0.366 | 0.397 | 0.327 | 0.342 | 0.358 |
| SW 900 | – | – | – | – | 1.03 | 0.986 | 0.788 | 1 | 0.821 | 0.777 | 0.964 | 0.745 | 0.608 | 0.451 | 0.653 | 0.395 | 0.639 | 0.66 | 0.494 | 0.448 |
